# Source: patent publication US5525626A (priority 1989, dated 1996)
# Columns and labels:
# [1] = tested on: LNCap cells; experiment: cell growth in combination with testosterone; assay type: cell-based, human; conditions: FIG. 9
# [2] = tested on: malignant cell growth; conditions: cited from earlier work
# [3] = tested on: U 178 MG, TP 410 N, TP 242 MG, TP 336 MG and A 431 cells; experiment: growth curves of five tumor cell lines, comparison with coumarin; assay type: cell-based, human; conditions: corresponding concentrations, up to 12 days
# Experimental: (§1) The neuroblastoma cell line and the three glioblastoma cell lines were cultivated in Ham's F10 medium enriched with 10% fetal calf serum (FCS) and the usual quantity of penicillin, streptomycin (Pen/Strep) and glutamine. The epidermoidal cell line was cultivated in modified Eagle's Medium (MEM), likewise enriched with 10% (FCS) and the usual quantity of glutamine and Pen/Strep.
# In each case 5×10^4 cells were plated out in T25 bottles, the untreated cells being incubated in analogous conditions as control. The cell count was microscopically determined after 3, 5, 7, 10 and 12 days.
# [4] = tested on: U 178 MG, TP 410 N, TP 242 MG, TP 336 MG and A 431 cells; conditions: coumarin in the corresponding concentrations
# Experimental: as §1
# Untreated cells served as a control. Subsequently, the cells were incubated for 8 hours with ^3 H-thymidine. The radioactivity absorbed by the cells was measured in the usual way.
# [5] = tested on: T4 lymphocytes; conditions: low concentrations; cited from earlier work
smiles,measurement,setting,value
"O=c1oc2ccccc2cc1O [3-OH-1,2-BP, reference compound]","effect on cell growth, comparison compound",[1],essentially ineffective
"O=c1ccc2ccccc2o1 [coumarin, 1,2-Benzopyrone, reference compound]",malignant cell growth,[2]; cell cultures and animal experiments,inhibits malignant cell growth in cell cultures and in animal experiments
same,side-effects in mammals,[2]; compared with biological activity,side-effects in the case of mammals are to be disregarded compared with biological activity
same,growth-inhibiting activity (growth curve) versus control,[3],no significant difference could be observed
same,difference from control in pre-trial,[4],no significant difference could be observed
O=P1(N(CCCl)CCCl)NCCCO1 (stereo not drawn) [cyclophosphamide],biological activity of T4 lymphocytes,[5],inhibits the biological activity of T4 lymphocytes
